These results are taken from US11412737B2, “Mixtures of beflubutamid or optically enriched forms thereof with a second herbicide” (FMC Corporation, priority 2016, dated 2022).

The test system of one series is Common chickweed (STEME). Put plainly: pre-emergence test, weed control. It is filed as in vivo, Stellaria media. The note with it: pre-emergent, 28 DAT; BFL at 187.5 g, PYX at 90 g, combination of both. Here is the method: (§1) Test compositions containing the test compounds were diluted with water to provide the appropriate test rate concentrations.
(§2) For pre-emergence testing, four disposable fiber flats (6 inch by 10 inch) for each rate of application of each herbicide solution were filled with top soil, to which seeds of each species were planted in furrows made by a template pressed on the top of the soil. The furrows were covered with soil after planting the seed and were watered well before application of the test compounds.
Fiber flats designated for treatment were placed in a spray chamber having a static platform and a movable sprayer and the height of the spray nozzle was 10.5 inches above the soil level. Once the sprayer was calibrated using water for spray volume of 30 gallons per acre, flats were sprayed with sprayer at a speed to receive a coverage equivalent of 30 gallons per acre. […]
The control of weeds was evaluated in each experimental test at 21 for wheat and 28 days after treatment (DAT) for all species. Data were analyzed using Minitab software at 95% confidence interval. […] Percent control was determined by a method similar to the 0 to 100 rating system disclosed in “Research Methods in Weed Science,” 2nd ed., B. Truelove, Ed.; Southern Weed Science Society; Auburn University, Auburn, Ala., 1977. […]

A further series deals with Jimsonweed (DATST). In words: pre-emergence test, weed control. The format is in vivo, Datura stramonium. The note with it: pre-emergent, 28 DAT, combination of both. Here is the method:
as §1, §2
Fiber flats designated for treatment were placed in a spray chamber having a static platform and a movable sprayer and the height of the spray nozzle was 10.5 inches above the soil level. Once the sprayer was calibrated using water for spray volume of 30 gallons per acre, flats were sprayed with sprayer at a speed to receive a coverage equivalent of 30 gallons per acre. The application rates are those shown in the Tables below for the individual herbicidal solutions and the herbicide compositions of this invention. The pre-emergence flats were immediately placed in the greenhouse and watered lightly after treatment. Thereafter they were regularly watered and fertilized for the duration of the test.
The control of weeds was evaluated in each experimental test at 21 for wheat and 28 days after treatment (DAT) for all species. Data were analyzed using Minitab software at 95% confidence interval. The results, shown as an average of the replications, were compared with results observed in untreated control flats in the same tests. Percent control was determined by a method similar to the 0 to 100 rating system disclosed in “Research Methods in Weed Science,” 2nd ed., B. Truelove, Ed.; Southern Weed Science Society; Auburn University, Auburn, Ala., 1977. The rating system is as follows in Table 1.

The subject of the next series is Hemp sesbania (SEHE8). In words: pre-emergence test, weed control. It is filed as in vivo. The following applies: pre-emergent, 28 DAT; BFL at 187.5 g, PYX at 90 g, combination of both. Put shortly:
(§3)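 Visual 0–100 ratings of percent control against untreated flats, averaged across four replicate flats, were taken at 28 days after treatment for all species (21 days for wheat). Treatments went onto freshly seeded, watered soil before emergence at a spray volume of 30 gallons per acre.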

For the next series, the system named is Large crabgrass (DIGSA). In words: pre-emergence test, weed control. It is filed as in vivo. The following applies: pre-emergent, 28 DAT; rate g ai/ha by row: r4 94, r5 50, r6 100, r7 52.5, r8 70, r9 94+52.5, r10 94+70, r11 50+52.5, r12 50+70, r13 100+52.5, r14 100+70. In outline:
as §3

Another series has as its system Rice flatsedge (CYPIR). Put plainly: pre-emergence test, weed control. The format is in vivo. The following applies: pre-emergent, 28 DAT; rate g ai/ha by row: r5 94, r6 125, r7 250, r8 3.28, r9 6.56, r10 13.1, r11 94+3.28, r12 94+6.56, r13 94+13.1, r14 125+3.28, r15 125+6.56, r16 125+13.1. Put shortly: as §3
A further series relates to velvetleaf (IPOHE). Put plainly: pre-emergence test, weed control. The format is in vivo. The following applies: pre-emergent, 21 DAT, rate g ai/ha by row: r4 94, r5 125, r6 250, r7 125, r8 250, r9 500, r10 94+125, r11 125+125, r12 94+250, r13 125+250, r14 94+500, r15 125+500.
Another series deals with redroot pigweed (AMARE). Put plainly: post-emergence test, weed control. It is filed as in vivo. The note with it: post-emergent, 28 DAT, COC 1%, rate g ai/ha by row: r5 94, r6 125, r7 250, r8 1.25, r9 2.5, r10 5, r11 94+1.25, r13 125+1.25, r15 94+2.5, r17 125+2.5, r19 94+5, r21 125+5. How it is done: as §1
(§4) For post-emergence testing, seeds of each species for each rate of application of each herbicide solution were planted in 7.5 cm×7.5 cm plastic pots filled with potting soil. The seeds were germinated and the resulting plants were allowed to grow in a greenhouse until they reached a growth stage, such as height, suitable for testing. […] Pots of post-emergent treated plants were returned to the greenhouse and not watered for 24 hours after treatment. Thereafter they were regularly watered and fertilized for the duration of the test.
(§5) The control of weeds was evaluated in each experimental test at 21 for wheat and 28 days after treatment (DAT) for all species. […] The rating system is as follows in Table 1.

A further series deals with Palmer amaranth (AMAPA). In words: post-emergence test, weed control. The format is in vivo, Amaranthus palmeri. The following applies: post-emergent, 28 DAT, COC 1%, rate g ai/ha by row: r5 94, r6 125, r7 250, r8 1.25, r9 2.5, r10 5, r11 94+1.25, r13 125+1.25, r15 94+2.5, r17 125+2.5, r19 94+5, r21 125+5. How it is done:
as §1, §4, §5

The test system of another series is Barley (B). Put plainly: post-emergence test, crop injury. The note with it: post-emergent, 28 DAT, BFL racemic, height at application 14 cm; rate g ai/ha by row: r7 94, r8 125, r9 188, r10 125, r11 250, r12 94+125, r13 125+125, r14 188+125, r15 94+250, r16 125+250, r17 188+250. The format is in vivo. How it is done:
as §1, §4, §5

Another series deals with Blackgrass (ALOMY). Put plainly: pre-emergence test, weed control. The following applies: pre-emergent, 28 DAT. It is filed as in vivo. In outline: as §3
The test system of another series is Yellow foxtail (SETLU). Put plainly: pre-emergence test, weed control. It is filed as in vivo. The following applies: pre-emergent, 28 DAT, (−)-BFL >95% e.e., rate g ai/ha by row: r6 62, r7 125, r8 125, r9 250, r10 445, r11 890, r12 45, r13 90, r14 62+125, r15 125+125, r16 62+250, r17 125+250, r18 62+445, r19 125+445, r20 62+890, r21 125+890, r22 62+45, r23 125+45, r24 62+90, r25 125+90. In outline: as §3

Values joined by “and” are separate entries in the source; they are usually repeats but may differ in a detail not shown here. Equal values may be shown once.

Take `CCC(Oc1ccc(F)c(C(F)(F)F)c1)C(=O)NCc1ccccc1` (racemic) [BFL, 2-[4-fluoro-3-(trifluoromethyl)phenoxy]-N-(phenylmethyl)butanamide]: the “control of common chickweed” value in the series on Common chickweed (STEME) is listed as 6%. For the same molecule, the control of jimsonweed in the series on Jimsonweed (DATST) (BFL at 62.5 g, PTX at 90 g) came out at 4%; in the series on Jimsonweed (DATST) (BFL at 187.5 g, PYX at 90 g), 30%. Moreover, the “control of hemp sesbania” value with Hemp sesbania (SEHE8) turned out to be 28%. Further, the “percentage of weed control, DIGSA” value with Large crabgrass (DIGSA) came out at 25%. For the same molecule, the “percentage of weed control, Rice flatsedge CYPIR” value in the series with Rice flatsedge (CYPIR) is 71% and 88% and 100%. The entries for the “percentage of weed control, Morningglory IPOHE” value with velvetleaf (IPOHE) (94 g ai/ha) and with velvetleaf (IPOHE) (250 g ai/ha) were 10% and 8%, respectively. In addition, the “percentage of weed control, Redroot pigweed AMARE” value is 61% in the series with redroot pigweed (AMARE) (BFL at 94 g ai/ha), 60% in the series on redroot pigweed (AMARE) (BFL at 125 g ai/ha) and 86% in the series on redroot pigweed (AMARE) (BFL at 250 g ai/ha). Moreover, the “percentage of weed control, Palmer amaranth AMAPA” value turned out to be 46% in the series on Palmer amaranth (AMAPA) (BFL at 94 g ai/ha), 48% in the series on Palmer amaranth (AMAPA) (BFL at 125 g ai/ha) and 53% in the series on Palmer amaranth (AMAPA) (BFL at 250 g ai/ha). For the same molecule, the “percentage of crop injury, B” value in the series on Barley (B) was 1%.

As to `CC1(C)CON(Cc2ccc(Cl)cc2Cl)C1=O` [DCI, 2-(2,4-dichlorophenyl)methyl-4,4-dimethyl-3-isoxazolidinone], the “percentage of weed control, ALOMY” value in the series on Blackgrass (ALOMY) ((+)-BFL >95% e.e., rate g ai/ha by row: r6 62.5, r7 125, r8 62.5, r9 125, r10 222, r11 445, r12 22.5, r13 45, r14 62.5+62.5, r15 125+62.5, r16 62.5+125, r17 125+125, r18 62.5+222, r19 125+222, r20 62.5+445, r21 125+445, r22 62.5+22.5, r23 125+22.5, r24 62.5+45, r25 125+45, 62.5 g ai/ha) is reported as 65%; in the series with Blackgrass (ALOMY) ((+)-BFL >95% e.e., rate g ai/ha by row: r6 62.5, r7 125, r8 62.5, r9 125, r10 222, r11 445, r12 22.5, r13 45, r14 62.5+62.5, r15 125+62.5, r16 62.5+125, r17 125+125, r18 62.5+222, r19 125+222, r20 62.5+445, r21 125+445, r22 62.5+22.5, r23 125+22.5, r24 62.5+45, r25 125+45, 125 g ai/ha), 64%; in the series on Blackgrass (ALOMY) ((−)-BFL >95% e.e., rate g ai/ha by row: r6 62, r7 125, r8 125, r9 250, r10 445, r11 890, r12 45, r13 90, r14 62+125, r15 125+125, r16 62+250, r17 125+250, r18 62+445, r19 125+445, r20 62+890, r21 125+890, r22 62+45, r23 125+45, r24 62+90, r25 125+90, 125 g ai/ha), 98%; in the series with Blackgrass (ALOMY) ((−)-BFL >95% e.e., rate g ai/ha by row: r6 62, r7 125, r8 125, r9 250, r10 445, r11 890, r12 45, r13 90, r14 62+125, r15 125+125, r16 62+250, r17 125+250, r18 62+445, r19 125+445, r20 62+890, r21 125+890, r22 62+45, r23 125+45, r24 62+90, r25 125+90, 250 g ai/ha), 99%. In addition, the results for the “percentage of weed control, SETLU” value in the series on Yellow foxtail (SETLU) (125 g ai/ha) and in the series with Yellow foxtail (SETLU) (250 g ai/ha) were 75% and 96%, respectively.
